# pIC50: −log10 of the molar value. Structures can show the parent of a compound that is named as a salt.
# What was measured:
# Assay type in all cases: cell-based
# [1] = system: HT29 cells (human colon cancer cell line); assay: Inhibition of cell proliferation, xCelligence cell index; details: HT-29, 72 hr post compound treatment, read-out: calculated IC50
# Source text: (§1) The biological activity of compounds disclosed herein was monitored and profiled using the Real-Time Cell Electronic Sensing (RT-CES®) system from ACEA Biosciences, Inc. The RT-CES system utilizes cell-substrate impedance technology to monitor cellular behavior inside tissue culture wells in a microtiter plate format. The technology features in the integration of molecular and cell biology with microelectronics and is based on the electronic detection of biological assay process. The details of this cell electronic sensing technology and associated devices, systems and methods of use are described in U.S. Pat. No. 7,167,585; U.S. Pat. No. 7,468,255; PCT publication number WO 2004/010102; U.S. Pat. No. 7,470,533; and U.S. Pat. No. 7,459,303, each of which is incorporated herein by reference. Additional details of RT-CES technology are further disclosed in U.S. Pat. No. 7,468,255.
# (§2) For measurement of cell-substrate or cell-electrode impedance using RT-CES technology, microelectrodes having appropriate geometries are fabricated onto the bottom surfaces of microtiter plate or similar device, facing into the wells. […] When there are changes to the biological status of the cells analogue electronic readout signals are measured automatically and in real time, and are converted to digital signals for processing and for analysis. In a RT-CES system, a cell index (arbitrary representation of change in impedance) is automatically derived and provided based on measured electrode impedance values. […]
# (§3) To quantify cell status based on the measured cell-electrode impedance, a parameter termed Cell Index is derived. Cell Index is a quantitative measure of the status of the cells in an electrode-containing well. […]
# (§4) HT29 cells (human colon cancer cell line) were seeded into wells of 96 well E-plate devices (Roche) with an initial seeding density of 5000 cells per well and were pre-incubated in incubator under standard cell culture condition for about 24 hours. […] The cell status was monitored prior to and after the compound addition using xCelligence system (Roche). […]
# [2] = system: NCI-H460 cells (human large cell lung carcinoma cell line); assay: as above; details: 72 hr post compound treatment, read-out: calculated IC50
# Source text: as §1, §2, §3
# as §4, with “NCI-H460” for “HT29”, “large cell lung carcinoma” for “colon cancer”
# [3] = system: GTL16 cells (human gastric cancer cell line); assay: as above; details: GTL 16, 72 hr post compound treatment, read-out: calculated IC50
# Source text: as §1
# For measurement of cell-substrate or cell-electrode impedance using RT-CES technology, microelectrodes having appropriate geometries are fabricated onto the bottom surfaces of microtiter plate or similar device, facing into the wells. Cells are introduced into the wells of the devices, and make contact to and attach to the electrode surfaces. The presence, absence or change of properties of cells affects the electronic and ionic passage on the electrode sensor surfaces. Measuring the impedance between or among electrodes provides important information about biological status of cells present on the sensors. When there are changes to the biological status of the cells analogue electronic readout signals are measured automatically and in real time, and are converted to digital signals for processing and for analysis. In a RT-CES system, a cell index (arbitrary representation of change in impedance) is automatically derived and provided based on measured electrode impedance values. […]
# as §3
# [4] = system: A549 cells (human lung carcinoma cell line); assay: Inhibition of cell proliferation, RT-CES cell index; details: 72 hr post compound treatment, read-out: calculated IC50
# Source text: as §1, §2, §3
# as §4, with “A549” for “HT29”, “lung carcinoma” for “colon cancer”, “RT-CES” for “xCelligence”, “(ACEA Biosciences).” for “(Roche).”
# [5] = system: U138MG cells (human brain cancer cell line); assay: Inhibition of cell proliferation, xCelligence cell index; details: U138-MG, 72 hr post compound treatment, read-out: calculated IC50
# Protocol: U138MG cells (human brain cancer cell line) were seeded into wells of 96 well E-plate devices (Roche) with an initial seeding density of 5000 cells per well and were pre-incubated in incubator under standard cell culture condition for about 24 hours. […] The cell status was monitored prior to and after the compound addition using xCelligence system (Roche). […]
# [6] = system: SW1088 cells (human brain cancer cell line); assay: as above; details: 72 hr post compound treatment, read-out: calculated IC50
# [7] = system: H292 cells (human pulmonary lung carcinoma cell line); assay: as above; details: NCI-H292, 72 hr post compound treatment, read-out: calculated IC50
# Source text: as §1, §2, §3
# as §4, with “H292” for “HT29”, “pulmonary lung carcinoma” for “colon cancer”
# [8] = system: U118MG cells (human brain cancer cell line); assay: as above; details: U-118-MG, 72 hr post compound treatment, read-out: calculated IC50
# Source text: For measurement of cell-substrate or cell-electrode impedance using RT-CES technology, microelectrodes having appropriate geometries are fabricated onto the bottom surfaces of microtiter plate or similar device, facing into the wells. Cells are introduced into the wells of the devices, and make contact to and attach to the electrode surfaces. The presence, absence or change of properties of cells affects the electronic and ionic passage on the electrode sensor surfaces. Measuring the impedance between or among electrodes provides important information about biological status of cells present on the sensors. When there are changes to the biological status of the cells analogue electronic readout signals are measured automatically and in real time, and are converted to digital signals for processing and for analysis. In a RT-CES system, a cell index (arbitrary representation of change in impedance) is automatically derived and provided based on measured electrode impedance values. The cell index obtained for a given well reflects: 1) how many cells are attached to the electrode surfaces in this well; 2) how well cells are attached to the electrode surfaces in this well. […]
# U118MG cells (human brain cancer cell line) were seeded into wells of 96 well E-plate devices (Roche) with an initial seeding density of 5000 cells per well and were pre-incubated in incubator under standard cell culture condition for about 24 hours. […] The cell status was monitored prior to and after the compound addition using xCelligence system (Roche). […]
# [9] = system: A172 cells (human brain cancer cell line); assay: as above; details: A 172, 72 hr post compound treatment, read-out: calculated IC50
# Protocol: A172 cells (human brain cancer cell line) were seeded into wells of 96 well E-plate devices (Roche) with an initial seeding density of 5000 cells per well and were pre-incubated in incubator under standard cell culture condition for about 24 hours. […] The cell status was monitored prior to and after the compound addition using xCelligence system (Roche). […]
SMILES,pIC50 [1],pIC50 [2],pIC50 [3],pIC50 [4],pIC50 [5],pIC50 [6],pIC50 [7],pIC50 [8],pIC50 [9]
"CCc1ccc(Nc2nc(-c3c(C)nc4sccn34)cs2)cc1 [COMPOUND O, 2-(4-ethylphenyl)amino-4-(6-methylimidazo[2,1-b]thiazol-5-yl)-thiazole monohydrobromide]",7.60,7.96,7.17,7.96,8.47,7.67,7.97,7.88,7.94
CC(=O)O[C@H]1C(=O)[C@@]2(C)[C@H]([C@H](OC(=O)c3ccccc3)[C@]3(O)C[C@H](OC(=O)[C@H](O)[C@@H](NC(=O)c4ccccc4)c4ccccc4)C(C)=C1C3(C)C)[C@]1(OC(C)=O)CO[C@@H]1C[C@@H]2O [paclitaxel],8.60,8.57,8.99,8.28,7.74,7.88,8.59,7.91,8.35
CC[C@]1(O)C[C@H]2CN(CCc3c([nH]c4ccccc34)[C@@](C(=O)OC)(c3cc4c(cc3OC)N(C=O)[C@H]3[C@@](O)(C(=O)OC)[C@H](OC(C)=O)[C@]5(CC)C=CCN6CC[C@]43[C@@H]65)C2)C1 [vincristine],7.90,7.98,8.43,7.21,9.19,8.30,8.58,8.37,8.89

# Source: patent US20110207751A1, “HETEROCYCLIC COMPOUNDS AND USES AS ANTICANCER AGENTS” (priority 2010, published 2011)
